For one assay, the target named is T1, SRD5A3 (Homo sapiens, UniProt Q9H8P0).
T1 construct: The downregulation of SRD5A3 and GSPT1 (eRF3a) proteins in PC-3 and HepG2 cells by C59; endogenous in cells; host or cells: 22Rv1, PC-3, HepG2
T1 sequence (Q9H8P0 1-318): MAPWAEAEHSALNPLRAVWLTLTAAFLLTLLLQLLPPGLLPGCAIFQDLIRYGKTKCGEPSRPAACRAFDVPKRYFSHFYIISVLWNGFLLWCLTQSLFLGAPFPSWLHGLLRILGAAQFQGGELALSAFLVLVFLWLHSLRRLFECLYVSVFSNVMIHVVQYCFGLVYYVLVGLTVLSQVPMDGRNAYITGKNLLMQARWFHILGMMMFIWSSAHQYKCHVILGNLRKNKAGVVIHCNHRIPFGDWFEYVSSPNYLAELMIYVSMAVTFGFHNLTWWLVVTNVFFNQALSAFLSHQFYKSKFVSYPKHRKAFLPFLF
Briefly: Western blot assay in HepG2 cells: SRD5A3. The format is cell-based. The settings on record: different concentrations at 24 h (FIG. 10). An excerpt: (§1) Example 84: Western Blot Assay of Compound C59 in 22Rv1, PC-3, and HepG2 Cells
(§2) (1) Materials: 22Rv1, PC-3, and HepG2 cell, anti-SRD5A1 antibody (ab167606), anti-SRD5A2 antibody (ab124877), anti-SRD5A3 antibody (PA5-107029), anti-androgen receptor (AR) antibody (CST, No. 5153), anti-GSPT1 antibody (Abcam, ab234433), anti-GADPH antibody (CST, No. 5174), anti-c-Myc antibody (CST, No. 8583), anti-α-tublin antibody (CST, No. 2125), anti-rabbit IgG, HRP-linked antibody (CST, No. 7074), electrophoresis device and membrane transfer device (LIUYI, BEIJING; DYCZ-24DN)
(§3) Cell seeding: 22Rv1 (Cell Bank of the Chinese Academy of Sciences, TCHu100), PC-3 (Cell Bank of the Chinese Academy of Sciences, SCSP-532) and HepG2 cells (Cell Bank of the Chinese Academy of Sciences, TCHu72) were subcultured and trypsinized to prepare 6×10^5 cells/mL suspensions, seeded on 6-well plates (3 mL/well), and cultured overnight in a cell incubator at 5% CO2 and 37° C. […]
(§4) Protein quantification: The protein was quantified using a BCA protein quantification kit. […]
(§5) Western immunoblot assay (or Western blot, WB): SDS-PAGE gel at a proper concentration was prepared according to the molecular weight of the target protein: for example, the concentration of the separation gel was 8% and the concentration of the stacking gel was 5%. The loading volume was adjusted according to the protein quantification results. […]
Background: Immunoblotting shows a protein as a band on a membrane.

In a further assay the test system is ARV7. Nature of the assay: Western blot assay in 22Rv1 cells: ARV7. The class given is cell-based, human. The settings on record: different concentrations at 24 h, and 3 nM at different time points (FIGS. 7 and 8).
From the text: as §1, §2, §3, §4, §5

For another assay, the target named is T2, GSPT1 (Homo sapiens, UniProt P15170+Q96SW2).
T2 construct: The downregulation of SRD5A3 and GSPT1 (eRF3a) proteins in PC-3 and HepG2 cells by C59; endogenous in cells; host or cells: 22Rv1, PC-3, HepG2
T2 sequence (P15170 1-637 isoform P15170-3): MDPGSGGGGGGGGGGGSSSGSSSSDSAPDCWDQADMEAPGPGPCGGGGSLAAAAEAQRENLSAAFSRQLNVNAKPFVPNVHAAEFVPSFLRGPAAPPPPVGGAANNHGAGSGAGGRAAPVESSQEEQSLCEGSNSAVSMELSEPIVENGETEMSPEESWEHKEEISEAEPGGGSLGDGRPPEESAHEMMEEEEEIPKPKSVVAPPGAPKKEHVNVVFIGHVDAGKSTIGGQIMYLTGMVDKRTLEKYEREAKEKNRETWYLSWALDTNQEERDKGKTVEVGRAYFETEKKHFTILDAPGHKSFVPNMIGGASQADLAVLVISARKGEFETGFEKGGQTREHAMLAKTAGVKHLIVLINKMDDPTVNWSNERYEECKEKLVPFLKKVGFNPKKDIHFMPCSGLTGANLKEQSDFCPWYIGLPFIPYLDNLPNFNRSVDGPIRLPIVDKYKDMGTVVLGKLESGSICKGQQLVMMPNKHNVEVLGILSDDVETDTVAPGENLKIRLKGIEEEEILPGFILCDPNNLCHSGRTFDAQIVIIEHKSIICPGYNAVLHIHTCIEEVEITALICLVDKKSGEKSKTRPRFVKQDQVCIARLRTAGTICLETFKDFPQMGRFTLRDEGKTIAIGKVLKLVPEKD
T2 sequence (Q96SW2 whole entry): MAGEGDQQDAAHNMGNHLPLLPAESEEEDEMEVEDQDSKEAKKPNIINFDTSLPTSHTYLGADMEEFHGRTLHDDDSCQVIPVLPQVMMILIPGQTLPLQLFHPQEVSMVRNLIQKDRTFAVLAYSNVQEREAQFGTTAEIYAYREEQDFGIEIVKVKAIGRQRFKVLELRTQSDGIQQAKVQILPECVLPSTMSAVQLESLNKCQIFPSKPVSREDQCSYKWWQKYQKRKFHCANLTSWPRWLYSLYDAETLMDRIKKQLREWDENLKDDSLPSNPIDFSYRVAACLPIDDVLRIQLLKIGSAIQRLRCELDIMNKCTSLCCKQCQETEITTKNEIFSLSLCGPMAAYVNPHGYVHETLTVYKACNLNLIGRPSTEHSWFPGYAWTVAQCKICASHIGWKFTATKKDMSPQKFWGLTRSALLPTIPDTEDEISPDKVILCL
T2 sequence (Q16531 whole entry partner): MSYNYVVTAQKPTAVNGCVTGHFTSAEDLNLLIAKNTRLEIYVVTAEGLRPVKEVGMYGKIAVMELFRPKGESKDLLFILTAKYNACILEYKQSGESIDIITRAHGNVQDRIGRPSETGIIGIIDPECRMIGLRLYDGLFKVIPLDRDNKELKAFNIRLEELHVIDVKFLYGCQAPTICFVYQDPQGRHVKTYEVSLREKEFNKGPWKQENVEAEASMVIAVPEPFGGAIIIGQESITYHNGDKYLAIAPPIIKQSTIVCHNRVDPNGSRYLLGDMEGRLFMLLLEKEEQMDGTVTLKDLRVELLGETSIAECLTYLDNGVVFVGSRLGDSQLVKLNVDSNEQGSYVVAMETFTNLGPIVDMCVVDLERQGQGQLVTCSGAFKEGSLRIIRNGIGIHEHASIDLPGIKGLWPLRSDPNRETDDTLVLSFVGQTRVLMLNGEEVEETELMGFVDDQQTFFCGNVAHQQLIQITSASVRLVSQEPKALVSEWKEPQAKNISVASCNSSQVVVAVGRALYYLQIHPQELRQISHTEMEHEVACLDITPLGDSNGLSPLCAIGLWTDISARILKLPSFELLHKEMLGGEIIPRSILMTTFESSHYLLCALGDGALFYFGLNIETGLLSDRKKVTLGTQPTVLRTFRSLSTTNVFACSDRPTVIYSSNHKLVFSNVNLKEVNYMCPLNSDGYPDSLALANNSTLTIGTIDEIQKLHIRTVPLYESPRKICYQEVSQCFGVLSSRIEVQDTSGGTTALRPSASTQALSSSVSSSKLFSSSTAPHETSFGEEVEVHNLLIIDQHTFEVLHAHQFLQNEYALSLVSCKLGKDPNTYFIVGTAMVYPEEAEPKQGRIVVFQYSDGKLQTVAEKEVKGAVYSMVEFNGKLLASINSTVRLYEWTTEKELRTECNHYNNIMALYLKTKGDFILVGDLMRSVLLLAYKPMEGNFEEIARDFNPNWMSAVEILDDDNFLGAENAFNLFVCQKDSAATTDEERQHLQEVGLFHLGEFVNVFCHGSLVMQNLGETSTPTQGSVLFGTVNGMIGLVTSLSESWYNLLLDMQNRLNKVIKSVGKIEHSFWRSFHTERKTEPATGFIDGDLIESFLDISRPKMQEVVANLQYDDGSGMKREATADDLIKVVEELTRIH
Nature of the assay: Western blot assay in 22Rv1 cells: GSPT1. The format is cell-based. The settings on record: different concentrations at 24 h, and 3 nM at different time points (FIGS. 7 and 8).
From the text: as §1, §2, §3, §4, §5

The next assay deals with MCF-7 cells. Briefly: Anti-proliferative toxicity of C63 in tumor cell lines (CCK8): MCF-7. The format is cell-based. The conditions noted are these: Homo sapiens, MCF7, 72 h, 3 days, read-out: Inhibition rate. How it is done: Example 83: Detection of Anti-Proliferative Toxicity of C63 in Some Tumor Cell Lines
MCF-7 cells (purchased from the Cell Bank of the Chinese Academy of Sciences, Cat. No. SCSP-531) were subcultured in a culture medium (MEM medium+1% penicillin-streptomycin dual-antibiotic solution+10% fetal bovine serum+0.01 mg/mL recombinant human insulin) in an incubator at 5% carbon dioxide and 37° C.
MCF-7 cells were seeded at 5000 cells/well (90 μL) on a 96-well plate and cultured for 24 h.
10 mM compound stock solutions were prepared in DMSO.
The compound stock solution was diluted with DMSO to give DMSO solutions 1-9 at concentrations of 0 μM, 2500 μM, 500 μM, 100 μM, 20 μM, 4 μM, 0.8 μM, 0.16 μM, and 0.032 μM.
2 μL of each of solutions 1-9 was added to 98 μL of the medium to give mixed solutions 11-19 of the compound and the medium.
10 μL of each of solutions 11-19 was added to the above cell seed solution to give a total volume of 100 μL (90 μL+10 μL).
The concentrations of the compound in the wells were 0 μM, 5.0 μM, 1.0 μM, 0.2 μM, 0.04 μM, 0.008 μM, 0.0016 μM, 0.00032 μM, and 0.000064 μM. All concentrations were in triplicate.
After the above-treated cells were cultured for 3 days, 10 μL of the CCK8 solution (DOJINDO, Cat. No. PF725) was added to each well. The plate was incubated in an incubator at 37° C. for 1-4 h and then detected on a microplate reader for the reading at 450 nm.

Consider 2 compounds from patent publication US20250213701A1, “MEDICAMENT FOR TREATING HUMAN TUMOR BASED ON ERF3A-TARGETING PROTEOLYSIS MECHANISM” (SUZHOU DEGEN BIO-MEDICAL CO., LTD., priority 2022, published 2025).

`C[C@]12C=CC(=O)N[C@@H]1CC[C@@H]1[C@@H]2CC[C@]2(C)[C@@H](C(=O)Nc3cccc(N[C@@H]4CCC[C@@H](Nc5cccc6c5C(=O)N(C5CCC(=O)NC5=O)C6=O)C4)c3)CC[C@@H]12` (stereo partly drawn) [C59, N-(3-(N—(N-(4-(2-(3-(2,6-dioxopiperidine))-isoindole-1,3-dione))-1R,3R-cyclohexanediamine))phenyl)-3-oxo-4-aza-5α-androst-1-ene-17β-carboxamide]: on SRD5A3, the “downregulation of SRD5A3 protein (Western blot)” value is “downregulation”. Besides, the “downregulation of ARV7 protein (Western blot)” value with ARV7 is reported as “downregulation”. In addition, on GSPT1, the “downregulation of GSPT1 protein (Western blot)” value is on record as “downregulation”.

Turning to `C[C@]12C=CC(=O)N[C@@H]1CC[C@@H]1[C@@H]2CC[C@]2(C)[C@@H](C(=O)Nc3cccc(N[C@@H]4CCC[C@@H](Nc5cccc6c5C(=O)N([C@H]5CCC(=O)NC5=O)C6=O)C4)c3)CC[C@@H]12` [C63, N-(3-(N—(N-(4-(2-(3S-(2,6-dioxopiperidine))-isoindole-1,3-dione))-1R,3R-cyclohexanediamine))phenyl)-3-oxo-4-aza-5α-androst-1-ene-17β-carboxamide], in the assay with MCF-7 cells (0.000064 μM), the inhibition at 64 pM is 6.61%. For the same compound, in the assay with MCF-7 cells (0.000320 μM), the inhibition at 0.00032 µM turned out to be 14.5%. Also, in the assay with MCF-7 cells (0.001600 μM), the inhibition at 0.0016 µM was 36.8%. Further, in the assay on MCF-7 cells (0.008000 μM), the inhibition at 0.008 µM was 46%. The inhibition at 0.04 µM in the assay on MCF-7 cells (0.040000 μM) is 50.2%. In addition, the inhibition at 0.2 µM with MCF-7 cells (0.200000 μM) came to 54.9%. Besides, in the assay on MCF-7 cells (1.000000 μM), the inhibition at 1 µM came to 57.6%. The inhibition at 5 µM in the assay on MCF-7 cells (5.000000 μM) was found to be 61.4%.

In general, inhibition refers to how much of the control response was suppressed.
